Results as given in PubChem BioAssay (NCI).
Values joined by “and” are separate entries in the source; they are usually repeats but may differ in a detail not shown here. Equal values may be shown once.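 Briefly, cells in 96-well plates were exposed to five compound concentrations for 48 h, and endpoints were estimated by linear interpolation. GI50 marks 50% less growth. TGI: concentration producing complete growth inhibition.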

Legend:
Assay in all cases: inhibition of tumour cell growth, NCI panel, 48 h
[1] = test system: K-562 leukemia
[2] = test system: RXF 393 renal
[3] = test system: SF-268 CNS
[4] = test system: SW-620 colon
[5] = test system: HL-60(TB) leukemia
[6] = test system: OVCAR-8 ovarian
[7] = test system: SN12C renal
[8] = test system: BT-549 breast
[9] = test system: COLO 205 colon
[10] = test system: HS 578T breast
[11] = test system: EKVX NSCLC
[12] = test system: MCF7 breast
[13] = test system: UO-31 renal
[14] = test system: SK-MEL-2 melanoma
[15] = test system: HT29 colon
[16] = test system: PC-3 prostate
[17] = test system: MOLT-4 leukemia
[18] = test system: M14 melanoma
[19] = test system: HOP-62 NSCLC
[20] = test system: CCRF-CEM leukemia
[21] = test system: UACC-62 melanoma
[22] = test system: SNB-75 CNS
[23] = test system: 786-0 renal
[24] = test system: HOP-92 NSCLC
[25] = test system: DU-145 prostate
[26] = test system: MALME-3M melanoma
[27] = test system: MDA-MB-231 breast
[28] = test system: SNB-19 CNS
[29] = test system: T-47D breast
[30] = test system: ACHN renal
[31] = test system: NCI-H226 lung
[32] = test system: MDA-MB-435
[33] = test system: LOX IMVI melanoma
[34] = test system: NCI-H522 lung
[35] = test system: OVCAR-5 ovarian
[36] = test system: NCI-H23 lung
[37] = test system: RPMI-8226 leukemia
[38] = test system: OVCAR-4 ovarian
[39] = test system: HCC-2998 colon
[40] = test system: HCT-116 colon
[41] = test system: A498 renal
[42] = test system: IGROV1 ovarian
[43] = test system: KM12 colon
[44] = test system: SK-OV-3 ovarian
[45] = test system: HCT-15 colon
[46] = test system: U251 CNS
[47] = test system: SF-539 CNS
[48] = test system: SR leukemia
[49] = test system: SK-MEL-5 melanoma
[50] = test system: OVCAR-3 ovarian
[51] = test system: A549 NSCLC
[52] = test system: SF-295 CNS
[53] = test system: NCI/ADR-RES ovarian
[54] = test system: NCI-H460 lung

In the case of `COC(=O)[C@@H](C)C[C@H](Cc1ccccc1)NC(=O)c1csc([C@@H](C[C@H](C(C)C)N(C)C(=O)C2(NC(=O)[C@H]3CCCCN3C)CC2)OC(C)=O)n1`, the GI50 [1] is reported as 2.44 nM and 3.33 nM, the TGI [1] is reported as over 33300 nM and the GI50 [2] is reported as 21.6 nM. The TGI [3] was over 33300 nM, the GI50 [4] was 3.17 nM and 3.33 nM and the TGI [4] was over 33300 nM. For the same molecule, the GI50 [5] was 0.657 nM and < 3.33 nM, the TGI [5] was 6.85 nM and < 3.33 nM and the TGI [6] was over 33300 nM. For the same molecule, the GI50 [7] was 15.6 nM and 3.33 nM, the TGI [7] was over 33300 nM and the GI50 [8] was 5.49 nM and < 3.33 nM. The TGI [8] was under 3.33 nM, the GI50 [9] was 3.46 nM and the TGI [9] was 64.4 nM. For the same molecule, the GI50 [10] was 19.1 nM, the TGI [11] was over 33300 nM and the GI50 [12] was 0.612 nM and 3.33 nM. The TGI [12] was over 33300 nM, the GI50 [13] was 1300 nM and the TGI [13] was over 33300 nM. For the same molecule, the GI50 [14] was 4.11 nM, the GI50 [15] was 3.51 nM and 3.33 nM and the TGI [15] was 7650 nM. For the same molecule, the GI50 [16] was 5.23 nM and 3.33 nM, the TGI [16] was over 33300 nM and the GI50 [17] was 9.65 nM and 3.33 nM. The TGI [17] was over 33300 nM, the GI50 [18] was 5.04 nM and 3.33 nM and the TGI [18] was 468 nM. The TGI [19] was over 33300 nM, the GI50 [20] was 5.31 nM and 3.33 nM and the TGI [20] was over 33300 nM. The GI50 [21] was 3.52 nM and 3.33 nM, the TGI [21] was over 33300 nM and the GI50 [22] was 4.34 nM and 3.33 nM. For the same molecule, the TGI [22] was over 33300 nM, the TGI [23] was over 33300 nM and the GI50 [24] was 4.34 nM and 3.33 nM. The TGI [24] was 5290 nM, the GI50 [25] was 3.48 nM and 3.33 nM and the GI50 [26] was over 33300 nM. For the same molecule, the TGI [26] was over 33300 nM, the GI50 [27] was 6.81 nM and 3.33 nM and the TGI [27] was 4360 nM. For the same molecule, the GI50 [28] was 8.24 nM and 3.33 nM, the TGI [28] was over 33300 nM and the GI50 [29] was 3.33 nM. The TGI [29] was over 33300 nM, the TGI [30] was over 33300 nM and the GI50 [31] was 3.33 nM. The TGI [31] was over 33300 nM, the GI50 [32] was 0.405 nM and < 3.33 nM and the TGI [32] was 2.73 nM and < 3.33 nM. For the same molecule, the GI50 [33] was 9.47 nM and 3.33 nM, the TGI [33] was over 33300 nM and the GI50 [34] was 0.537 nM. For the same molecule, the TGI [34] was 4.91 nM, the TGI [35] was over 33300 nM and the GI50 [36] was 17.2 nM and 3.33 nM. The TGI [36] was over 33300 nM, the GI50 [37] was 0.613 nM and 3.33 nM and the TGI [37] was 17000 nM. The GI50 [38] was 8.65 nM, the GI50 [39] was 8.49 nM and 3.33 nM and the TGI [39] was over 33300 nM. For the same molecule, the GI50 [40] was 3.43 nM and 3.33 nM, the TGI [40] was over 33300 nM and the GI50 [41] was 8.58 nM and < 3.33 nM. The GI50 [42] was 1.47 nM and 3.33 nM, the TGI [42] was over 33300 nM and the GI50 [43] was 6.55 nM and 3.33 nM. For the same molecule, the TGI [43] was over 33300 nM, the GI50 [44] was 18.3 nM and < 3.33 nM and the TGI [44] was under 3.33 nM. The GI50 [45] was 424 nM, the GI50 [46] was 9.13 nM and 3.33 nM and the TGI [46] was over 33300 nM. For the same molecule, the GI50 [47] was 8.68 nM and < 3.33 nM, the GI50 [48] was 0.486 nM and 3.33 nM and the TGI [48] was over 33300 nM. For the same molecule, the GI50 [49] was 3.74 nM and 3.33 nM, the GI50 [50] was 0.567 nM and 3.33 nM and the TGI [51] was over 33300 nM. The GI50 [52] was 25.1 nM and 3.33 nM, the TGI [52] was over 33300 nM and the GI50 [53] was over 33300 nM. For the same molecule, the TGI [53] was over 33300 nM, the GI50 [54] was 11.1 nM and 3.33 nM and the TGI [54] was over 33300 nM.
